# Measurements reported in US9518041B2, “(+)-5-(3,4-difluorophenyl)-5-[(3-methyl-2-oxopyridin-1(2H)-yl)methyl]imidazolidine-2,4-dione and drug containing same” (KAKEN PHARMACEUTICAL CO., LTD., priority 2013, dated 2016).
# Experiments:
# human MMP-9 = target: T1, human MMP-9 (Homo sapiens, UniProt P14780); test: MMP-9 inhibition test; format: biochemical; settings: read-out: Inhibitory activity (IC50, nM) MMP-9
# T1 construct: purchased Calbiochem 444231
# Protocol: (§1) MMP inhibition tests can be carried out, for example, using a fluorescent synthetic substrate based on the methods described in Bickett et al. (D. Mark Bickett et al., Anal. Biochem., 1993, 212, 58-64) and Nagase et al. (H. Nagase et al., J. Biol. Chem., 1994, 269, 20952-20957). The method for each MMP inhibition test is shown below.
# (§2) 90 μL (11 ng) of human MMP-9 (Calbiochem #444231) was mixed with 10 μL of 10 mM APMA, and activated by reacting at 37° C. for 2 hours. 10 μL of the resultant enzyme solution was diluted to 90 μL with an assay buffer A. The mixture was added to 90 μL of a 20 μM fluorescent substrate (Dnp-Pro-Cha-Gly-Cys(Me)-His-Ala-Lys(Nma)-NH2) (SEQ ID NO: 2) prepared with an assay buffer B, and reacted at 37° C. for 4 hours. Enzyme activity was then determined by measuring with a fluorescence intensity meter (Labsystems, Fluoroskan Ascent) at an excitation wavelength of 355 nm and a measurement wavelength of 460 nm.
# (§3) From the enzyme activity in the presence or the absence of the test substance, the inhibition rate was determined, and the 50% inhibitiory concentration (IC50) of the test substance was calculated.
# human MMP-8 = target: T2, human MMP-8 (Homo sapiens, UniProt P22894); test: MMP-8 inhibition test; format: biochemical; settings: read-out: Inhibitory activity (IC50, nM) MMP-8
# T2 construct: purchased Calbiochem 444229
# Protocol: as §1
# 90 μL (29 ng) of human MMP-8 (Calbiochem #444229) was mixed with 10 μL of 10 mM APMA, and activated by reacting at 37° C. for 1 hour. 10 μL of the resultant enzyme solution was diluted to 90 μL with an assay buffer A. The mixture was added to 90 μL of a 20 μM fluorescent substrate (MOCAc-Pro-Leu-Gly-Leu-A2pr(Dnp)-Ala-Arg-NH2, Peptide Institute Inc., #3163-v) (SEQ ID NO: 3) prepared with an assay buffer B, and reacted at 37° C. for 5 hours. Enzyme activity was then determined by measuring with a fluorescence intensity meter (Labsystems, Fluoroskan Ascent) at an excitation wavelength of 320 nm and a measurement wavelength of 405 nm.
# as §3
# human MMP-13 = target: T3, human MMP-13 (Homo sapiens, UniProt P45452); test: MMP-13 inhibition test; format: biochemical; settings: read-out: Inhibitory activity (IC50, nM) MMP-13
# T3 construct: purchased Calbiochem 444287
# Protocol: as §1
# as §2, with “(130” for “(11”, “MMP-13” for “MMP-9”, “#444287)” for “#444231)”, “1 hour.” for “2 hours.”
# as §3
# [1] = Solubility test in the 2nd fluid for the disintegration test of the Japanese Pharmacopoeia; format: physicochemical; settings: pH 6.8, aqueous buffer, thermodynamic from solid; pH6.8, shaken for 2 hours
# Protocol: Test substances (10.0 mg) were correctly weighed, and methanol was added to adjust to 10 mL. The solution was diluted by 10 times to prepare a solution of […].
# In a centrifuge tube 5.0 mg of the test substance was weighed, added with 5.0 mL of the 2nd fluid for the disintegration test of the Japanese pharmacopoeia, supersonified for 3 minutes, and shaken for 2 hours thereafter. This solution was filitered with a membrane filter (0.2 μm), 500 μL the filtrate was measured, 500 μL of acetonitrile was added, and fully stirred to obtain the sample solution.
# To 250 mL of 0.2 mol/L potassium dihydrogenphosphate aqueous solution, 118 mL of 0.2 mol/L sodium hydroxide aqueous solution and water was added to adjust to 1000 mL.
# Using a high performance liquid chromatography, each of the sample solution for a calibration curve and sample solution for solubility measurement is measured twice to calculate an average area for each.
# Based on the average area obtained in the above mentioned method, using an equation below to calculate a solubility. Solubility in the 2nd fluid for the disintegration test of the Japanese pharmacopoeia(μg/mL)=((P×2)/S)×100
# S: Average area on the sample solution for a calibration curve
# P: Average area on the sample solution for solubility measurement
# TACE = target: T4, TACE (Homo sapiens, UniProt P78536); test: TACE inhibition test (in vitro), fluorescent synthetic substrate; format: biochemical; settings: 37° C., 1.5 hours, read-out: TACE inhibitory activity, IC50 value
# T4 construct: made in house; host or cells: mammalian cells or insect cells
# Protocol: The nucleotide sequence of TACE has been reported by Moss et al. (Moss, M. L. et al., Nature 1997, 385, 733-736). Accordingly, the cDNA of TACE was obtained according to the prescribed method from THP-1 cells or the like, and then incorporated the cDNA into an expression vector. Next, this vector was transformed into mammalian cells or insect cells, and TACE expression was obtained. […]
# Namely, 90 μL of an enzyme solution prepared with an assay buffer A (50 mM tris-hydrochloric acid buffer (pH 7.5) including 200 mM sodium chloride, 5 mM calcium chloride, 10 μM zinc sulfate, and 2 mg/mL bovine serum albumin) and 90 μL of a fluorescent synthetic substrate prepared with an assay buffer B (50 mM tris-hydrochloric acid buffer (pH 7.5) including 200 mM sodium chloride, 5 mM calcium chloride, 10 μM zinc sulfate, and 0.05% PLURONIC F-68) were mixed together, and reacted at 37° C. for 1.5 hours. Enzyme activity was then determined by measuring with a fluorescence intensity meter (Labsystems, Fluoroskan Ascent) at an excitation wavelength of 355 nm and a measurement wavelength of 460 nm. […]
# T1 sequence (P14780 107-707 limits assumed): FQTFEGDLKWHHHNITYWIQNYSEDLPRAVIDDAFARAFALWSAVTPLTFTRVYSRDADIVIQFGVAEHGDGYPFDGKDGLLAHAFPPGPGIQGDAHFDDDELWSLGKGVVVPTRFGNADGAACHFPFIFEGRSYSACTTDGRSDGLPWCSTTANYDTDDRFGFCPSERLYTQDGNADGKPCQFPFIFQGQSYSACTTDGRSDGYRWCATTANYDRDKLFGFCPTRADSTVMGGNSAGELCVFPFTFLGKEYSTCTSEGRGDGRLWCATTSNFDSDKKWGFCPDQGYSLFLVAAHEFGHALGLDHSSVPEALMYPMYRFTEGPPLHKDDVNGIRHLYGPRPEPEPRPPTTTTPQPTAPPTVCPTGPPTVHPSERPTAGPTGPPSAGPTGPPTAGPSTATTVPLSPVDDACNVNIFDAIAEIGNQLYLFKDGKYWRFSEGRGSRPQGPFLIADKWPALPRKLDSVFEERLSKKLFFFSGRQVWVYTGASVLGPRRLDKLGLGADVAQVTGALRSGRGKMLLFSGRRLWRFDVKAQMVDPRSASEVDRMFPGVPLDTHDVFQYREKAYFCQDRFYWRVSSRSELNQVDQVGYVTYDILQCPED
# T4 sequence (P78536 215-824): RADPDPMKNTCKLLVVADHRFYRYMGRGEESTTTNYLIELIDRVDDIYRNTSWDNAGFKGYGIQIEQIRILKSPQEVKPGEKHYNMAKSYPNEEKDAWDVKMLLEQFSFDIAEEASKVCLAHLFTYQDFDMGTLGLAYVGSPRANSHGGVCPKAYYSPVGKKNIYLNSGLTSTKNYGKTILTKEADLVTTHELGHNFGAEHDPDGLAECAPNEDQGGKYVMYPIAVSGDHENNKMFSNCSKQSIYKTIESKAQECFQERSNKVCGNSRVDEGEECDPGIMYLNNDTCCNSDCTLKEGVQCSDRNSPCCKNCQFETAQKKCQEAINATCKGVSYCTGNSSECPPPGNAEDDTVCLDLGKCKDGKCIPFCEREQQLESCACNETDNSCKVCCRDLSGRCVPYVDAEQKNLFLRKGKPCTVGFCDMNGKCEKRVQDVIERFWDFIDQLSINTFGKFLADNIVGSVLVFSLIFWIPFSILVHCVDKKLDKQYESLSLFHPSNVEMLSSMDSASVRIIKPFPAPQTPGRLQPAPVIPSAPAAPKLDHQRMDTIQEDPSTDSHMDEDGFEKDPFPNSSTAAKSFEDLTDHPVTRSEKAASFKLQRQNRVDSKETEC
# T2 sequence (P22894 101-467): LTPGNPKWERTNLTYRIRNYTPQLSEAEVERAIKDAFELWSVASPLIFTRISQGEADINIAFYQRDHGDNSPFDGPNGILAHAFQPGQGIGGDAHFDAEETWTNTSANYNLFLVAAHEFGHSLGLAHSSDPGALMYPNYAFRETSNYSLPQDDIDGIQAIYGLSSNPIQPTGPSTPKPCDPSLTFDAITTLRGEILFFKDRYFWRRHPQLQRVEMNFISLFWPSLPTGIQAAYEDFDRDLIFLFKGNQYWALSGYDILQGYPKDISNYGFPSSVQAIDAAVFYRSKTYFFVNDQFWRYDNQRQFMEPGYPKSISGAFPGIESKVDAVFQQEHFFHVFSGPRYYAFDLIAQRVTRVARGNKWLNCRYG
compound,measurement,setting,value
"Cc1cccn(CC2(c3ccc(F)c(F)c3)NC(=O)NC2=O)c1=O (single isomer, unassigned; (+)) [(+)-5-(3,4-difluorophenyl)-5-[(3-methyl-2-oxopyridin-1(2H)-yl)methyl]imidazolidine-2,4-dione]",IC50,human MMP-9,> 10000 nM
same,IC50,human MMP-8,> 10000 nM
same,IC50,human MMP-13,> 10000 nM
same,solubility at 2 h,[1],430 µg/mL
same,IC50,TACE,≤ 100 nM
